Values joined by “and” are separate entries in the source; they are usually repeats but may differ in a detail not shown here. Equal entries are not always repeated. Where two headings read alike, the source gives them in different places.
Legend:
[1] = tested on: cyanobacteria; format: cell-based
[2] = tested on: cyanobacteria; format: cell-based; remark: listed apart in the source

## O=S(=O)([O-])[O-].O=S(=O)([O-])[O-].O=S(=O)([O-])[O-].[Al+3].[Al+3] [Al2(SO4)3, reference compound]
[1]; 100 ppm
  Microcystin concentration determined by the assay: 0.45 ppb

## O=S(=O)([O-])[O-].[Cu+2] [CuSO4, copper sulfate]
[1]; 10 ppm
  Microcystin concentration determined by the assay: 2.40 ppb
[1]; 100 ppm
  Microcystin concentration determined by the assay: 2.31 ppb
[1]; 1000 ppm
  Microcystin concentration determined by the assay: 7.25 ppb and 5.17 ppb
[1]; 1000 ppm for 10 min
  Microcystin concentration determined by the assay: 4.28 ppb
[1]; 1000 ppm for 20 min
  Microcystin concentration determined by the assay: 4.96 ppb
[1]; 1000 ppm for 30 min
  Microcystin concentration determined by the assay: 5.64 ppb
[1]; 5000 ppm
  Microcystin concentration determined by the assay: 4.79 ppb

## CCCCCCCCCCCCOS(=O)(=O)[O-].[Na+] [SDS, reference compound]
[1]; 0.1%
  Microcystin concentration determined by the assay: 14.13 ppb

## O=[N+]([O-])[O-].[Ag+] [Silver nitrate]
[2]
  effectiveness as a lytic agent: as effective as silver sulfate as a lytic agent

## Triton X-100 [reference compound]
[1]
  Microcystin concentration determined by the assay: 2.92 ppb and 2.52 ppb and 2.55 ppb

— patent US11035856B1 (priority 2007, dated 2021)
